The record followed here is patent US20070167490A1, “Imino ether derivative compounds and drugs containing the compounds as the active ingredient” (Ono Pharmaceutical Co Ltd, priority 2003, published 2007).

Each structure is given as a SMILES string.

A word on the melting point: it is the temperature of the solid-liquid transition. `CC/C(=N\OCCOc1cccc(CC(=O)O)c1)c1ccc(-c2cccs2)cc1` [14(30), (3-{2-[({(1E)-1-[4-(2-thienyl)phenyl]propylidene}amino)oxy]ethoxy}phenyl)acetic acid] showed a melting point of 117 to 120 °C. Then `CC/C(=N\OCCOc1cccc(CC(=O)O)c1)c1ccc(-n2cccn2)cc1` [14(35), (3-{2-[({(1E)-1-[4-(1H-pyrazol-1-yl)phenyl]propylidene}amino)oxy]ethoxy}phenyl)acetic acid], with 143.5 to 147 °C.
